Assay [1] deals with benzodiazepine receptors. Briefly: displacement of 3H-flunitrazepam from benzodiazepine receptors in vitro (rat forebrain membranes). To be noted: 50% displacement of specific 3H-flunitrazepam binding (1.0 nM, 0° C.), brain membranes of rats, pH 7.1. A general note: Loss of bound radioactivity is the signal in a displacement assay; it reports binding, not function.
Assay [2] concerns spasms induced by pentylenetrazole (pentazol). Briefly: PTZ spasms antagonism (protection from pentylenetrazole-induced spasms and death). More on the design: species or system mice. To be noted: Mus musculus, ip, 0.5 h; protects 50% of animals from spasms and death; test substance i.p. 15-30 minutes before pentazol 150 mg/kg s.c.; Litchfield and Wilcoxon; read-out: PTZ (ED50) mg/kg in vivo. As to the method:
The compounds according to the invention especially show anxiolytic and anticonvulsive effectiveness. […] Pentazol is administered subcutaneously in an amount of 150 mg/kg as hydrochloric acid solution (pH 2-3) 15-30 minutes after the intraperitoneal application of the test substance. This amount induces clonic and tonic spasms, which lead to death in untreated animals. The number of mice which show spasms and the number of them that died 30 minutes after pentazol are recorded (PTZ spasms antagonism).
The ED50 values indicated in the table were determined according to the method of Litchfield and Wilcoxon (J. Pharmacol. exp. Ther. 96 (1949) […]) as the amount of antagonistically acting substance which protects 50% of the animals from spasms and death.

The test system of assay [3] is benzodiazepine receptors. Briefly: displacement of 3H-flunitrazepam from benzodiazepine receptors in live brain, in vivo. To be noted: reduction of specific flunitrazepam binding in live brain to 50% of control; normally intraperitoneal; 3H-flunitrazepam i.v. after 15 minutes, forebrain removed after another 20 minutes.

Structures are written as SMILES. In brackets after ≈: the same amount, converted by molar mass.

`CCOC(=O)c1ncc2[nH]c3cccc(Oc4ccc(Cl)cc4Cl)c3c2c1COC` [5-(2,4-dichlorophenoxy)-4-methoxymethyl-beta-carboline-3-carboxylic acid ethyl ester]: on benzodiazepine receptors [1], the “IC50 (ng/ml) in vitro” value is 2.9 ng/mL (≈ 6.51 nM). In addition, the ED50 in assay [2] was found to be 4 mg/kg. Besides, in the assay with benzodiazepine receptors [3], the “ED50 (mg/kg) in vivo” value came out at 3.2 mg/kg.
For `COCc1c(C(=O)OC(C)C)ncc2[nH]c3cccc(Oc4ccccc4Cl)c3c12` [5-(2-Cl-Phenoxy), CH2 OCH3, COOCH(CH3)2], at benzodiazepine receptors [1], the “IC50 (ng/ml) in vitro” value amounted to 2.6 ng/mL (≈ 6.12 nM). The ED50 in assay [2] came out at 4 mg/kg. The “ED50 (mg/kg) in vivo” value with benzodiazepine receptors [3] is listed as 19 mg/kg.
For `CCc1noc(-c2ncc3[nH]c4cccc(Oc5ccccc5Cl)c4c3c2COC)n1` [5-(2-Cl-Phenoxy), CH2 OCH3, drawing 10], the “IC50 (ng/ml) in vitro” value at benzodiazepine receptors [1] turned out to be 3.1 ng/mL (≈ 7.13 nM). For the same compound, the ED50 in assay [2] was 0.8 mg/kg. In addition, in the assay on benzodiazepine receptors [3], the “ED50 (mg/kg) in vivo” value is 11 mg/kg.
As to `CCOC(=O)c1ncc2[nH]c3cccc(Oc4ccccc4)c3c2c1COC` [5-Phenoxy, CH2 OCH3, COOEt, 5-Phenoxy-4-methoxymethyl-beta-carboline-3-carboxylic acid ethyl ester], on benzodiazepine receptors [1], the “IC50 (ng/ml) in vitro” value was determined as 0.3 ng/mL (≈ 0.797 nM). For the same compound, the ED50 in assay [2] turned out to be 18 mg/kg. The “ED50 (mg/kg) in vivo” value in the assay on benzodiazepine receptors [3] amounted to 0.4 mg/kg.
On to `CCc1noc(-c2ncc3[nH]c4cccc(Oc5ccccc5)c4c3c2COC)n1` [5-Phenoxy, CH2 OCH3, drawing 12, 5-phenoxy-4-methoxymethyl-3-(3-ethyl-1,2,4-oxadiazol-5-yl)-beta carboline], for which, on benzodiazepine receptors [1], the “IC50 (ng/ml) in vitro” value is 0.6 ng/mL (≈ 1.5 nM). The ED50 in assay [2] is 0.1 mg/kg. Besides, the “ED50 (mg/kg) in vivo” value in the assay with benzodiazepine receptors [3] stood at 0.3 mg/kg.
On the same counts, the results for `CCOC(=O)c1ncc2[nH]c3cccc(Oc4ccccc4)c3c2c1C` [5-Phenoxy, CH3, COOC2 H5, 5-phenoxy-4-methyl-beta-carboline-3-carboxylic acid ethyl ester, reference compound] are 2.0 ng/mL (≈ 5.77 nM), > 30 mg/kg and 2.8 mg/kg.
Consider `CCc1noc(-c2ncc3[nH]c4cccc(Oc5ccccc5)c4c3c2C)n1` [5-Phenoxy, CH3, drawing 13, 5-phenoxy-4-methyl-3-(3-ethyl-1,2,4-oxadizaol-5-yl)-beta-carboline], for which, on benzodiazepine receptors [1], the “IC50 (ng/ml) in vitro” value was determined as 4.3 ng/mL (≈ 11.6 nM). In assay [2], the ED50 was determined as 2 mg/kg. For the same compound, the “ED50 (mg/kg) in vivo” value in the assay with benzodiazepine receptors [3] is recorded as 3.9 mg/kg.
Regarding `COCc1c(C(=O)OC(C)C)ncc2[nH]c3ccc(Oc4cccc(Cl)c4C#N)cc3c12` [6-(2-cyano-3-chlorophenoxy)-4-methoxymethyl-beta-carboline-3-carboxylic acid isopropyl ester], the “IC50 (ng/ml) in vitro” value at benzodiazepine receptors [1] was 0.67 ng/mL (≈ 1.49 nM). Moreover, in assay [2], the ED50 was found to be 1 mg/kg. In the assay with benzodiazepine receptors [3], the “ED50 (mg/kg) in vivo” value is recorded as 3.0 mg/kg.
As for `COCc1c(C(=O)OC(C)C)ncc2[nH]c3ccc(Oc4ccccc4C#N)cc3c12` [6-(2-cyanophenoxy)-4-methoxymethyl-beta-carboline-3-carboxylic acid isopropyl ester], the “IC50 (ng/ml) in vitro” value at benzodiazepine receptors [1] turned out to be 0.29 ng/mL (≈ 0.698 nM). In assay [2], the ED50 turned out to be 4 mg/kg. Further, in the assay with benzodiazepine receptors [3], the “ED50 (mg/kg) in vivo” value is 3.8 mg/kg.
On the same counts, the results for `COCc1c(C(=O)OC(C)C)ncc2[nH]c3ccc(Oc4ccccc4[N+](=O)[O-])cc3c12` [6-(2-nitrophenoxy)-4-methoxymethyl-beta-carboline-3-carboxylic acid isopropyl ester] are 0.33 ng/mL (≈ 0.758 nM), 13 mg/kg and 1.8 mg/kg.
Turning to `CCc1noc(-c2ncc3[nH]c4ccc(Oc5ccc(C(C)=O)cc5)cc4c3c2COC)n1` [6-(4-acetylphenoxy), CH2 OCH3, drawing 11, 6(4-acetylphenoxy)-4-methoxymethyl-3-(3-ethyl-1,2,4-oxadizaol-5-yl)-beta-carboline], at benzodiazepine receptors [1], the “IC50 (ng/ml) in vitro” value is 0.45 ng/mL (≈ 1.02 nM). In assay [2], the ED50 was found to be 0.3 mg/kg. Besides, in the assay with benzodiazepine receptors [3], the “ED50 (mg/kg) in vivo” value was found to be 7.7 mg/kg.
As to `CCc1noc(-c2ncc3[nH]c4ccc(Oc5ccccc5)cc4c3c2C)n1` [6-Phenoxy, CH3, drawing 14, 6-phenoxy-4-methyl-3-(3-ethyl-1,2,4-oxadiazol-5-yl)-beta carboline], the “IC50 (ng/ml) in vitro” value on benzodiazepine receptors [1] turned out to be 3.2 ng/mL (≈ 8.64 nM). In addition, the ED50 in assay [2] came to 2.4 mg/kg. Besides, the “ED50 (mg/kg) in vivo” value in the assay with benzodiazepine receptors [3] worked out at 2.6 mg/kg.

For the origin of these results see US4945090A, “Phenoxy-substituted beta-carboline derivatives, their production and their use as drugs” (Schering Aktiengesellschaft, priority 1985, dated 1990).
